The source of these data is PubChem BioAssay (NCI).

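Results reflect a 48-hour exposure of cells in 96-well plates to compound at five concentrations. TGI is the concentration that stops growth completely.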 Bounds are passed on as bounds.

The test system of one test is 786-0 renal. The experiment in a line: DTP human tumour cell line panel, 48 h.
One may read the TGI as the concentration at which net growth stops. `CCCCCCc1cc2cc(-c3csc(CC#N)n3)c(=O)oc2cc1O` gave a TGI greater than 64.2 µM.

In the case of `CC(=O)NC(Cc1ccc(O)cc1)C(=O)O` (stereo unspecified), the TGI is greater than 100 µM.

`O=C1CSC(c2ccc(Cl)cc2)N1c1ccc(Oc2ccc(Cl)cc2)c(Cl)c1` (stereo unspecified) displayed a TGI of 30.5 µM.

As to `Nn1c(-c2ccccc2)nn(C(=O)c2ccccc2)c1=O`, the TGI was greater than 100 µM.

Consider `COC(=O)C([C@H](NC1(c2ccccc2)c2ccccc2-c2ccccc21)C(=O)OC)N(NC(=O)OCc1ccccc1)C(=O)OCc1ccccc1` (mixture of isomers), for which the total growth inhibition concentration (TGI) is greater than 100 µM.

`CC[C@@H]1CC[C@@H]2[C@H](CC[C@]3(C)[C@@H](OC(C)=O)CC[C@@H]23)[C@H]1COC(C)=O` showed a TGI greater than 100 µM.

Turning to `Cc1ccc(N=NC(=Nc2ccccc2)c2ccc(N(CCC#N)CCC#N)cc2)cc1`, the total growth inhibition concentration (TGI) is greater than 100 µM.

In turn, `O=c1ccc(-c2ccccc2)n[nH]1` returned a TGI greater than 100 µM.

In turn, `CC(=O)O[C@@H]1[C@H](C(C)C)[C@@H](OC(C)=O)C/C(C)=C/CC[C@]2(C)O[C@@H]12` gave a TGI greater than 100 µM.

In turn, `CN1CCc2cc(N)cc3c2C1Cc1ccc(O)c(O)c1-3` (stereo unspecified) came in with a total growth inhibition concentration (TGI) greater than 100 µM.

Consider `Nc1nc(Cl)cc(NCC2(CO)CC(=O)C2)n1`, for which the TGI was greater than 100 µM.

On to `O=C(N/N=C(/COc1ccc(Cl)cc1)N=Cc1ccncc1)c1ccncc1`, for which the TGI is greater than 100 µM.

On to `COc1ccc2cc(NC(=O)N/N=C\c3ccc([N+](=O)[O-])cc3)ccc2c1`, for which the TGI was greater than 100 µM.

As for `COc1cc2nc3n(c(=O)c2cc1OC)-c1ccc([N+](=O)[O-])cc1C3=O`, the total growth inhibition concentration (TGI) is greater than 100 µM.

For `COc1cc(Br)cc2cc(-c3cn4ccsc4n3)c(=O)oc12`, the TGI is greater than 100 µM.

Take `COc1ccc(N/N=C2\CCOc3ccc(C)cc3C2=O)cc1`: the TGI amounted to 41.8 µM.

Take `COC(=O)C1SC(SC)=NC12c1ccccc1Nc1ccccc12` (stereo unspecified): the concentration for total growth inhibition (TGI) was greater than 100 µM.

For the compound `Nc1nc(SCCc2ccccc2)c2[nH]cnc2n1`, the TGI is greater than 100 µM.

Consider `O=C1CC(NC(=O)C(F)(F)F)c2c(Br)sc(N3CCNCC3)c21` (stereo unspecified), for which the TGI is greater than 100 µM.

For the compound `c1ccc(-c2nc(-c3ccccc3SSc3ccccc3-c3nc(-c4ccccc4)nn3-c3ccccc3)n(-c3ccccc3)n2)cc1`, the TGI was greater than 100 µM.

Consider `N#CC1(C#N)N[C@@H](c2ccsc2)[C@H]2C(=O)N(c3ccccc3)C(=O)[C@H]21`, for which the TGI was greater than 100 µM.

In another test the test system is A549 NSCLC. The experiment in a line: DTP human tumour cell line panel, 48 h.
`CCCCCCc1cc2cc(-c3csc(CC#N)n3)c(=O)oc2cc1O` came in with a concentration for total growth inhibition (TGI) greater than 100 µM.

Turning to `CC(=O)NC(Cc1ccc(O)cc1)C(=O)O` (stereo unspecified), the concentration for total growth inhibition (TGI) is greater than 100 µM.

Take `O=C1CSC(c2ccc(Cl)cc2)N1c1ccc(Oc2ccc(Cl)cc2)c(Cl)c1` (stereo unspecified): the TGI amounted to 34.5 µM.

Consider `Nn1c(-c2ccccc2)nn(C(=O)c2ccccc2)c1=O`, for which the total growth inhibition concentration (TGI) is greater than 100 µM.

For the compound `COC(=O)C([C@H](NC1(c2ccccc2)c2ccccc2-c2ccccc21)C(=O)OC)N(NC(=O)OCc1ccccc1)C(=O)OCc1ccccc1` (mixture of isomers), the TGI was greater than 100 µM.

Compound `CC[C@@H]1CC[C@@H]2[C@H](CC[C@]3(C)[C@@H](OC(C)=O)CC[C@@H]23)[C@H]1COC(C)=O` yielded a TGI of 59.2 µM.

Consider `Cc1ccc(N=NC(=Nc2ccccc2)c2ccc(N(CCC#N)CCC#N)cc2)cc1`, for which the TGI came out at 80.7 µM.

The compound `O=c1ccc(-c2ccccc2)n[nH]1` showed a concentration for total growth inhibition (TGI) greater than 100 µM.

`CC(=O)O[C@@H]1[C@H](C(C)C)[C@@H](OC(C)=O)C/C(C)=C/CC[C@]2(C)O[C@@H]12` had a concentration for total growth inhibition (TGI) greater than 100 µM.

For `CN1CCc2cc(N)cc3c2C1Cc1ccc(O)c(O)c1-3` (stereo unspecified), the total growth inhibition concentration (TGI) is greater than 100 µM.

Regarding `Nc1nc(Cl)cc(NCC2(CO)CC(=O)C2)n1`, the TGI is greater than 100 µM.

`O=C(N/N=C(/COc1ccc(Cl)cc1)N=Cc1ccncc1)c1ccncc1` displayed a TGI greater than 100 µM.

`COc1ccc2cc(NC(=O)N/N=C\c3ccc([N+](=O)[O-])cc3)ccc2c1` displayed a TGI greater than 100 µM.

For `COc1cc2nc3n(c(=O)c2cc1OC)-c1ccc([N+](=O)[O-])cc1C3=O`, the concentration for total growth inhibition (TGI) is greater than 100 µM.

With `COc1cc(Br)cc2cc(-c3cn4ccsc4n3)c(=O)oc12`, the TGI was greater than 100 µM.

For `COc1ccc(N/N=C2\CCOc3ccc(C)cc3C2=O)cc1`, the concentration for total growth inhibition (TGI) is greater than 100 µM.

Turning to `COC(=O)C1SC(SC)=NC12c1ccccc1Nc1ccccc12` (stereo unspecified), the TGI is greater than 100 µM.

`Nc1nc(SCCc2ccccc2)c2[nH]cnc2n1` displayed a TGI greater than 100 µM.

The compound `O=C1CC(NC(=O)C(F)(F)F)c2c(Br)sc(N3CCNCC3)c21` (stereo unspecified) displayed a total growth inhibition concentration (TGI) greater than 100 µM.

`c1ccc(-c2nc(-c3ccccc3SSc3ccccc3-c3nc(-c4ccccc4)nn3-c3ccccc3)n(-c3ccccc3)n2)cc1` came in with a total growth inhibition concentration (TGI) greater than 100 µM.

Turning to `N#CC1(C#N)N[C@@H](c2ccsc2)[C@H]2C(=O)N(c3ccccc3)C(=O)[C@H]21`, the concentration for total growth inhibition (TGI) is greater than 100 µM.

For the next test, the system named is BT-549 breast. The experiment in a line: DTP human tumour cell line panel, 48 h.
`CCCCCCc1cc2cc(-c3csc(CC#N)n3)c(=O)oc2cc1O` showed a TGI greater than 60.2 µM.

Compound `CC(=O)NC(Cc1ccc(O)cc1)C(=O)O` (stereo unspecified) had a total growth inhibition concentration (TGI) greater than 100 µM.

`O=C1CSC(c2ccc(Cl)cc2)N1c1ccc(Oc2ccc(Cl)cc2)c(Cl)c1` (stereo unspecified) returned a total growth inhibition concentration (TGI) of 29 µM.

Compound `Nn1c(-c2ccccc2)nn(C(=O)c2ccccc2)c1=O` came in with a TGI greater than 100 µM.

In the case of `COC(=O)C([C@H](NC1(c2ccccc2)c2ccccc2-c2ccccc21)C(=O)OC)N(NC(=O)OCc1ccccc1)C(=O)OCc1ccccc1` (mixture of isomers), the TGI was greater than 100 µM.

The compound `CC[C@@H]1CC[C@@H]2[C@H](CC[C@]3(C)[C@@H](OC(C)=O)CC[C@@H]23)[C@H]1COC(C)=O` registered a TGI of 87.9 µM.

For the compound `Cc1ccc(N=NC(=Nc2ccccc2)c2ccc(N(CCC#N)CCC#N)cc2)cc1`, the TGI is 47.3 µM.

As to `O=c1ccc(-c2ccccc2)n[nH]1`, the concentration for total growth inhibition (TGI) is greater than 100 µM.

On to `CC(=O)O[C@@H]1[C@H](C(C)C)[C@@H](OC(C)=O)C/C(C)=C/CC[C@]2(C)O[C@@H]12`, for which the total growth inhibition concentration (TGI) is greater than 100 µM.

As to `CN1CCc2cc(N)cc3c2C1Cc1ccc(O)c(O)c1-3` (stereo unspecified), the concentration for total growth inhibition (TGI) is greater than 100 µM.

Turning to `Nc1nc(Cl)cc(NCC2(CO)CC(=O)C2)n1`, the total growth inhibition concentration (TGI) was greater than 100 µM.

`O=C(N/N=C(/COc1ccc(Cl)cc1)N=Cc1ccncc1)c1ccncc1`: the total growth inhibition concentration (TGI) is greater than 100 µM.

In turn, `COc1ccc2cc(NC(=O)N/N=C\c3ccc([N+](=O)[O-])cc3)ccc2c1` came in with a total growth inhibition concentration (TGI) of 76.5 µM.

For the compound `COc1cc2nc3n(c(=O)c2cc1OC)-c1ccc([N+](=O)[O-])cc1C3=O`, the concentration for total growth inhibition (TGI) is greater than 100 µM.

`COc1cc(Br)cc2cc(-c3cn4ccsc4n3)c(=O)oc12`: the concentration for total growth inhibition (TGI) was 50.7 µM.

Compound `COc1ccc(N/N=C2\CCOc3ccc(C)cc3C2=O)cc1` had a TGI of 87.5 µM.

`COC(=O)C1SC(SC)=NC12c1ccccc1Nc1ccccc12` (stereo unspecified) gave a TGI of 58.6 µM. This TGI and that of the compound before are within 1.5-fold of each other.

`Nc1nc(SCCc2ccccc2)c2[nH]cnc2n1` had a TGI greater than 100 µM.

`O=C1CC(NC(=O)C(F)(F)F)c2c(Br)sc(N3CCNCC3)c21` (stereo unspecified) yielded a concentration for total growth inhibition (TGI) greater than 100 µM.

As to `c1ccc(-c2nc(-c3ccccc3SSc3ccccc3-c3nc(-c4ccccc4)nn3-c3ccccc3)n(-c3ccccc3)n2)cc1`, the total growth inhibition concentration (TGI) is greater than 100 µM.

For the compound `N#CC1(C#N)N[C@@H](c2ccsc2)[C@H]2C(=O)N(c3ccccc3)C(=O)[C@H]21`, the concentration for total growth inhibition (TGI) is greater than 100 µM.

In a further test the test system is COLO 205 colon. In words: DTP human tumour cell line panel, 48 h.
Compound `CCCCCCc1cc2cc(-c3csc(CC#N)n3)c(=O)oc2cc1O` gave a TGI greater than 100 µM.

On to `CC(=O)NC(Cc1ccc(O)cc1)C(=O)O` (stereo unspecified), for which the TGI is greater than 100 µM.

Turning to `O=C1CSC(c2ccc(Cl)cc2)N1c1ccc(Oc2ccc(Cl)cc2)c(Cl)c1` (stereo unspecified), the total growth inhibition concentration (TGI) turned out to be 34.3 µM. That is a double-digit micromolar value.
